Experiments:
[1] = target: T1, Bromodomain-containing protein 9 (Homo sapiens, UniProt Q9H8M2)
T1 sequence (Q9H8M2 whole entry): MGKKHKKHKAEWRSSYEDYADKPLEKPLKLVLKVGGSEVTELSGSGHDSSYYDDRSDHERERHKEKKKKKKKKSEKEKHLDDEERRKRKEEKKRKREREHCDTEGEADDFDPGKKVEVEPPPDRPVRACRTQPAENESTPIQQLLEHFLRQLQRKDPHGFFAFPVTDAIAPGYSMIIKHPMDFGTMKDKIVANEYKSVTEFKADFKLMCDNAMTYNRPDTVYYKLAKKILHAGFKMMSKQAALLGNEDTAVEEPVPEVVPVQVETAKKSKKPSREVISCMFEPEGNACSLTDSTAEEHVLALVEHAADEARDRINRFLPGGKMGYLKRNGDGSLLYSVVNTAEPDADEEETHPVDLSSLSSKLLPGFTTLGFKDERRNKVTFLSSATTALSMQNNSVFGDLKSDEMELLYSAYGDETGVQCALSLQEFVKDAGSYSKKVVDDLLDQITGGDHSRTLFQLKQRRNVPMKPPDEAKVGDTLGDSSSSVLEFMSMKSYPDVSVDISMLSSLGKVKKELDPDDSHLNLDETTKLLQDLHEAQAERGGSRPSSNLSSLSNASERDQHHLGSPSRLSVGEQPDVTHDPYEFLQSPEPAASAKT
Description: Inhibition of human BRD9 (130 to 259 residues) expressed in Escherichia coli BL21 after 1 hr by BROMOscan assay

[2] = target: T2, Peregrin (Homo sapiens, UniProt P55201); experiment: Inhibition of human BRPF1 (627 to 740 residues) expressed in Escherichia coli BL21 after 1 hr by BROMOscan assay
T2 sequence (P55201 whole entry): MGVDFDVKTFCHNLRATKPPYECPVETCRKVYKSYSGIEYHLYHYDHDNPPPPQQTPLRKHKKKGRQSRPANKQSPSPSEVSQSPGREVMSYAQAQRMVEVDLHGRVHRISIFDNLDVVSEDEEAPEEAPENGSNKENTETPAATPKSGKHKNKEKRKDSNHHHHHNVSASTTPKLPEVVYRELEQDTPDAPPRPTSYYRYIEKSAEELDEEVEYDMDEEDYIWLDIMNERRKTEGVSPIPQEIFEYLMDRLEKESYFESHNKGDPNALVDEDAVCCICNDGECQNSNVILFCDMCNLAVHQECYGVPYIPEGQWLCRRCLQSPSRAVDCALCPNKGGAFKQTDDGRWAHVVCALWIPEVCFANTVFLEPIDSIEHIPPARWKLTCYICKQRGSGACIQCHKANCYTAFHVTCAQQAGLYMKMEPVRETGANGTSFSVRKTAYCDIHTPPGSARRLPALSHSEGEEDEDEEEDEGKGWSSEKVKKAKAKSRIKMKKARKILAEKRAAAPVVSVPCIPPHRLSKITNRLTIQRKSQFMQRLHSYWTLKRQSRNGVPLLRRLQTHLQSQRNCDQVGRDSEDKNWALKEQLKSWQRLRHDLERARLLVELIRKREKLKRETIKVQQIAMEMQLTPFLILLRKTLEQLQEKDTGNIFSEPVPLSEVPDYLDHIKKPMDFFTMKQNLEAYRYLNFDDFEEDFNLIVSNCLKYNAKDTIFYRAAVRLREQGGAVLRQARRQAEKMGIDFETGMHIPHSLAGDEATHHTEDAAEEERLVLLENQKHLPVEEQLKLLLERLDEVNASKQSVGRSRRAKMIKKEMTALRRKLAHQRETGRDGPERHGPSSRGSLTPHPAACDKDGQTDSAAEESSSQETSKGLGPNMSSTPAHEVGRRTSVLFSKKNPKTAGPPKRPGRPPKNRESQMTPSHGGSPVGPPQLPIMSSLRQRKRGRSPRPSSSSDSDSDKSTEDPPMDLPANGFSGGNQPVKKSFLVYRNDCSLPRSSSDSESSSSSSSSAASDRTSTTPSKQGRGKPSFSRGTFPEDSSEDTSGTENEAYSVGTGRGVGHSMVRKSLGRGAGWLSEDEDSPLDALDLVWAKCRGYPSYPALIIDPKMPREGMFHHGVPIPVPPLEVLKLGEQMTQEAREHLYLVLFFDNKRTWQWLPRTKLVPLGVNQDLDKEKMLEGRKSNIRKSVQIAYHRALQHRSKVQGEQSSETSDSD

[3] = target: T3, Bromodomain-containing protein 1 (Homo sapiens, UniProt O95696); experiment: Inhibition of human BRPF2 (556 to 688 residues) expressed in Escherichia coli BL21 after 1 hr by BROMOscan assay
T3 sequence (O95696 whole entry): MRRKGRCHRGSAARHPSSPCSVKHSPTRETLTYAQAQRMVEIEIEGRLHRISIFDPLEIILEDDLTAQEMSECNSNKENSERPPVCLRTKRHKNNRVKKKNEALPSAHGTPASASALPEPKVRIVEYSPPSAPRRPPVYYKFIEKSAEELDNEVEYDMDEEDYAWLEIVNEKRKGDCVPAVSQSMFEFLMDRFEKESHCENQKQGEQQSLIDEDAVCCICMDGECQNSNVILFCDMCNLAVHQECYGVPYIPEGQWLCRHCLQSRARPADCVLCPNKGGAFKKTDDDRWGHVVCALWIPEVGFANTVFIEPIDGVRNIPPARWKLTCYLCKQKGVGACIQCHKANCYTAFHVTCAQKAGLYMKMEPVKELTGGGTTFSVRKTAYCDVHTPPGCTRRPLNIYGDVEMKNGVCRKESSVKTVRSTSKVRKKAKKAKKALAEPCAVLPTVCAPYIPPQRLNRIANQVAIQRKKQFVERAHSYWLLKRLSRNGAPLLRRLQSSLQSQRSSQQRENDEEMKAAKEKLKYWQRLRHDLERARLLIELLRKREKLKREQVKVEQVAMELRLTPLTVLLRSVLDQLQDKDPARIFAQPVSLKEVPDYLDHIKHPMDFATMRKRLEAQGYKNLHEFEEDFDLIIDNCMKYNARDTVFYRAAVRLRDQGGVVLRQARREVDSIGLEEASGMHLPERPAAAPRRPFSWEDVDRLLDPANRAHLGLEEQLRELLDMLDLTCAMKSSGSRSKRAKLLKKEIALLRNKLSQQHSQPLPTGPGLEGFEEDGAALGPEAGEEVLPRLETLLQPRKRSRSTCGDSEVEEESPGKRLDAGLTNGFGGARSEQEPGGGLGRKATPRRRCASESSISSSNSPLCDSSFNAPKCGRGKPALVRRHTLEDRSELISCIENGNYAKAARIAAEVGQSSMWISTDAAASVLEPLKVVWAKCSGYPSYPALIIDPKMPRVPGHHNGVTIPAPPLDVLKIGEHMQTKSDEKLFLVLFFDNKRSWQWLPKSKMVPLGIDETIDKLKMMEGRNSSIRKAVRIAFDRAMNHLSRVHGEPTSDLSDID

[4] = target: T4, Peregrin (Homo sapiens) (UniProt P55201)
T4 sequence (whole entry): T2 sequence (P55201 whole entry)
Description: Binding affinity to BRPF1 (unknown origin) assessed as change in melting temperature at 10 uM by differential scanning fluorimetry based thermal shift assay

[5] = target: Bromodomain-containing protein 4 (Homo sapiens, UniProt O60885); experiment: Inhibition of human BRD4 isoform long bromodomain 1 (44 to 168 residues) expressed in Escherichia coli BL21 after 1 hr by BROMOscan assay

COc1cc(C#N)ccc1S(=O)(=O)Nc1ccc2c(c1)cc(C)c(=O)n2C
IC50 [1]: 0.52 µM | IC50 [2]: 0.0031 µM | IC50 [3]: 0.046 µM | ΔTm [4]: 12.3 °C | IC50 [5]: 3.7 µM

Cn1c(=O)ccc2cc(S(=O)(=O)Nc3ccccc3)ccc21
IC50 [1]: 9.8 µM | IC50 [2]: 1 µM | IC50 [3]: 7.8 µM | ΔTm [4]: 3.5 °C | IC50 [5]: 37 µM

COc1cc(C#N)ccc1S(=O)(=O)Nc1ccc2c(c1)cc(C(C)C)c(=O)n2C
IC50 [1]: 9.3 µM | IC50 [2]: 0.17 µM | IC50 [3]: 3.3 µM
